From patent publication US6881741B2 (ViroChem Pharma Inc., priority 2001, dated 2005)
Where a name gives a salt, the structure may show the parent alone. Read-outs that look alike come from different tables or passages of the source.

Target: recombinant HCV NS5B (HCV RNA-dependent RNA polymerase) (Hepatitis C virus genotype 1b, UniProt P26663)
Assay: biochemical
[1] = related polymerase activity (Example 27 list), read-out: IC50
[2] = HCV polymerase activity, list of compounds of Example 27, read-out: IC50 (polymerase activity)

Sequence of recombinant HCV NS5B (HCV RNA-dependent RNA polymerase) (P26663 2420-3010 limits assumed): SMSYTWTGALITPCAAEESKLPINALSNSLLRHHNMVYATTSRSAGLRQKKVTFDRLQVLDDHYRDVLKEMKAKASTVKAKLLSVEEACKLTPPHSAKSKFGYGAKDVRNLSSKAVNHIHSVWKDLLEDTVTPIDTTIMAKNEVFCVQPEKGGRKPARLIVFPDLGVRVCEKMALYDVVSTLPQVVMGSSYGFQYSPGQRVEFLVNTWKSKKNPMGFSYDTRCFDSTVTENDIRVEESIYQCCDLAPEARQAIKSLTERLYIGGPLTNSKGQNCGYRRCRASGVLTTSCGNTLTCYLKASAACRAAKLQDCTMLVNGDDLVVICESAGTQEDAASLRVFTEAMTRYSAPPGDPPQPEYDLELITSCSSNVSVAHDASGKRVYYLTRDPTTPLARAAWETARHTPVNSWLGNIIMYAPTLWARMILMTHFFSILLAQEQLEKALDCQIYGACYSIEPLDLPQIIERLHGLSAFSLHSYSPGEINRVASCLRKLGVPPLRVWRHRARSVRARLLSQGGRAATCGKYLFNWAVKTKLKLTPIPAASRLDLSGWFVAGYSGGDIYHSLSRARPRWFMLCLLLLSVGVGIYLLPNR

| Structure (SMILES) | IC50 [1] | IC50 [2] | other results |
| --- | --- | --- | --- |
| Cc1ccc(C(=O)N(Cc2ccc(F)cc2F)c2cc(-c3ccccc3)sc2C(=O)O)cc1 [Compound 336, 3-[(2,4-DIFLUORO-BENZYL)-(4-METHYL- BENZOYL)-AMINO]-5-PHENYL- THIOPHENE-2-CARBOXYLIC ACID] | < 5 µM | – | – |
| O=C(O)c1sc(-c2ccccc2)cc1N(C(=O)c1ccc(Cl)cc1Cl)C1CCCCC1 [Compound 553, 3-[CYCLOHEXYL-(2,4-DICHLORO- BENZOYL)-AMINO]-5-PHENYL- THIOPHENE-2-CARBOXYLIC ACID] | – | < 5 µM | – |
| O=C(O)c1sc(-c2ccccc2)cc1N(Cc1ccccc1Cl)C(=O)C1CCCCC1 [Compound 444, 3-[(2-CHLORO-BENZYL)- CYCLOHEXANECARBONYL-AMINO]-5- PHENYL-THIOPHENE-2-CARBOXYLIC ACID] | – | < 5 µM | – |
| Cc1ccc(C(=O)N(c2cc(-c3ccccc3)sc2C(=O)O)C(C)C)c(C#N)c1 [Compound 431, 3-[(2-CYANO-4-METHYL-BENZOYL)- ISOPROPYL-AMINO]-5-PHENYL- THIOPHENE-2-CARBOXYLIC ACID] | – | 5 to 20 µM | – |
| CC(C)=CCN(C(=O)c1ccc(Cl)cc1Cl)c1cc(-c2ccccc2)sc1C(=O)O [Compound 244, 3-[(2,4-DICHLORO-BENZOYL)-(3-METHYL-BUT-2-ENYL)-AMINO]-5-PHENYL-THIOPHENE-2-CARBOXYLIC ACID] | < 5 µM | – | – |
| CN(C(=O)C1CCCCC1)c1cc(-c2ccccc2)sc1C(=O)O [Compound 498, 3-(CYCLOHEXANECARBONYL-METHYL- AMINO)-5-PHENYL-THIOPHENE-2- CARBOXYLIC ACID] | – | < 5 µM | – |
| CC(C)N(C(=O)c1ccc(Cl)cc1Cl)c1cc(-c2nccs2)sc1C(=O)O [Compound 449, 3-[(2,4-DICHLORO-BENZOYL)- ISOPROPYL-AMINO]-5-THIAZOL-2-YL- THIOPHENE-2-CARBOXYLIC ACID] | – | < 5 µM | – |
| Cc1ccc(-c2cc(NS(=O)(=O)c3ccc(F)cc3F)c(C(=O)O)s2)cc1 [Compound 119, 3-(2,4-DIFLUORO-BENZENESULFONYLAMINO)-5-P-TOLYL-THIOPHENE-2-CARBOXYLIC ACID] | < 5 µM | – | – |
| NC1CCCCC1N(C(=O)c1ccc(Cl)cc1Cl)c1cc(-c2ccccc2)sc1C(=O)O (stereo not drawn) [Compound 549, 2-[(2-CARBOXY-5-PHENYL-THIOPHEN-3-YL)- (2,4-DICHLORO-BENZOYL)-AMINO]- CYCLOHEXYL-AMMONIUM; CHLORIDE] | – | < 5 µM | – |
| Cc1cccc(N2CCN(C(=O)Nc3cc(-c4ccccc4)sc3C(=O)O)CC2)n1 [Compound 182, 3-{[4-(6-METHYL-PYRIDIN-2-YL)-PIPERAZINE-1-CARBONYL]-AMINO}-5-PHENYL-THIOPHENE-2-CARBOXYLIC ACID HYDROCHLORIDE] | 5 to 20 µM | – | – |
| O=C(Nc1cc(-c2ccccc2)sc1C(=O)O)c1cccs1 [Compound 74, 5-PHENYL-3-[(THIOPHENE-2-CARBONYL)-AMINO]-THIOPHENE-2-CARBOXYLIC ACID] | 5 to 20 µM | – | – |
| CN(C(=O)c1cccs1)c1cc(-c2ccccc2)sc1C(=O)O [Compound 75, 3-(METHYL-(THIOPHENE-2-CARBONYL)-AMINO]-5-PHENYL-THIOPHENE-2-CARBOXYLIC ACID] | 5 to 20 µM | – | – |
| CCC(=O)N(Cc1ccc([N+](=O)[O-])cc1)c1cc(-c2ccccc2)sc1C(=O)O [Compound 418, 3-[(4-NITRO-BENZYL)-PROPIONYL- AMINO]-5-PHENYL-THIOPHENE-2- CARBOXYLIC ACID] | – | 5 to 20 µM | – |
| O=C(O)c1sc(-c2ccccc2)cc1N(Cc1ccc(-c2cc3ccccc3o2)s1)C(=O)c1ccc(Cl)cc1Cl [Compound 12, 3-[(5-BENZOFURAN-2-YL-THIOPHEN-2-YLMETHYL)-(2,4-DICHLORO-BENZOYL)-AMINO]-5-PHENYL-THIOPHENE-2-CARBOXYLIC ACID] | 5 to 20 µM | – | – |
| O=C(O)c1sc(-c2ccccc2)cc1NS(=O)(=O)c1ccc(Cl)s1 [Compound 37, 3-(5-CHLORO-THIOPHENE-2-SULFONYLAMINO)-5-PHENYL-THIOPHENE-2-CARBOXYLIC ACID] | < 5 µM | – | – |
| CC(C)N(C(=O)c1ccc(Cl)cc1Cl)c1cc(-c2ccc(S(C)(=O)=O)cc2)sc1C(=O)O [Compound 373, 3-[(2,4-DICHLORO-BENZOYL)- ISOPROPYL-AMINO]-5-(4- METHANESULFONYL-PHENYL)- THIOPHENE-2-CARBOXYLIC ACID] | < 5 µM | – | – |
| Cc1ccccc1S(=O)(=O)Nc1cc(-c2ccc(F)cc2)sc1C(=O)O [Compound 66, 5-(4-FLUORO-PHENYL)-3-(TOLUENE-2-SULFONYLAMINO)-THIOPHENE-2-CARBOXYLIC ACID] | < 5 µM | – | – |
| CC(C)N(C(=O)C1CCCCC1)c1cc(-c2ccccc2)sc1C(=O)O [Compound 362, 3-(CYLCOHEXANECARBONYL- ISOPROPYL-AMINO)-5-PHENYL- THIOPHENE-2-CARBOXYLIC ACID] | 5 to 20 µM | – | – |
| Cc1ccccc1S(=O)(=O)Nc1cc(-c2ccc(C#N)cc2)sc1C(=O)O [Compound 83, 5-(4-CYANO-PHENYL)-3-(TOLUENE-2-SULFONYLAMINO)-THIOPHENE-2-CARBOXYLIC ACID] | < 5 µM | – | – |
| O=C(O)c1sc(-c2ccccc2)cc1NS(=O)(=O)c1cc(F)c(Br)cc1F [Compound 138, 3-(4-BROMO-2,5-DIFLUORO-BENZENESULFONYLAMINO)-5-PHENYL-THIOPHENE-2-CARBOXYLIC ACID] | < 5 µM | – | – |

| Structure (SMILES) | IC50 [1] | IC50 [2] | other results |
| --- | --- | --- | --- |
| CCCC(=O)N(Cc1ccc(C(F)(F)F)cc1)c1cc(-c2ccccc2)sc1C(=O)O [Compound 415, 3-[BUTYRYL-(4-TRIFLUOROMETHYL- BENZYL)-AMINO]-5-PHENYL-THIOPHENE- 2-CARBOXYLIC ACID] | – | 5 to 20 µM | – |
| Cc1ccc(S(=O)(=O)Nc2cc(-c3ccc(F)cc3)sc2C(N)=O)cc1 [Compound 564, 5-(4-FLUORO-PHENYL)-3-(TOLUENE-4- SULFONYLAMINO)-THIOPHENE-2- CARBOXYLIC ACID AMIDE] | – | 5 to 20 µM | – |
| Cc1ccc(S(=O)(=O)Nc2cc(-c3ccc(C(=O)O)cc3)sc2C(=O)O)c(C)c1 [Compound 332, 5-(4-CARBOXY-PHENYL)-3-(2,4-DIMETHYL- BENZENESULFONYLAMINO)- THIOPHENE-2- CARBOXYLIC ACID] | < 5 µM | – | – |
| O=C(O)c1sc(-c2ccccc2)cc1N(Cc1ccc(-c2ccc(F)c(Cl)c2)s1)C(=O)c1ccc(Cl)cc1Cl [Compound 111, 3-[[5-(3-CHLORO-4-FLUORO-PHENYL)-THIOPHEN-2-YLMETHYL]-(2,4-DICHLORO-BENZOYL)-AMINO]-5-PHENYL-THIOPHENE-2-CARBOXYLIC ACID] | < 5 µM | – | – |
| Nc1ccccc1S(=O)(=O)Nc1cc(-c2ccccc2)sc1C(=O)O [Compound 146, 3-(2-AMINO-BENZENESULFONYLAMINO)-5-PHENYL-THIOPHENE-2-CARBOXYLIC ACID] | < 5 µM | – | – |
| CC(C)N(C(=O)c1cc2c(Cl)cc(Cl)cc2[nH]1)c1cc(-c2ccccc2)sc1C(=O)O [Compound 521, 3-[(4,6-DICHLORO-1#H!-INDOLE-2- CARBONYL)-ISOPROPYL-AMINO]-5- PHENYL-THIOPHENE-2-CARBOXYLIC ACID] | – | < 5 µM | – |
| NC(=O)c1ccc(-c2cc(NS(=O)(=O)c3ccc(Cl)cc3)c(C(=O)O)s2)cc1 [Compound 265, 5-(4-CARBAMOYL-PHENYL)-3-(4-CHLORO-BENZENESULFONYLAMINO)-THIOPHENE-2-CARBOXYLIC ACID] | < 5 µM | – | – |
| CN(C(=O)c1cc2ccccc2o1)c1cc(-c2ccccc2)sc1C(=O)O [Compound 130, 3-[(BENZOFURAN-2-CARBONYL)-METHYL-AMINO]-5-PHENYL-THIOPHENE-2-CARBOXYLIC ACID] | > 20 µM | – | – |
| CC(C[NH3+])N(C(=O)c1ccc(Cl)cc1Cl)c1cc(-c2ccccc2)sc1C(=O)O (stereo not drawn) [Compound 546, 2-[(2-CARBOXY-5-PHENYL-THIOPHEN-3- YL)-(2,4-DICHLORO-BENZOYL)-AMINO]- PROPYL-AMINE TRIFLUOROACETIC ACID SALT] | – | < 5 µM | – |
| Cc1cc(Cl)ccc1C(=O)N(c1cc(-c2ccccc2)sc1C(=O)O)C(C)C [Compound 234, 3-[(4-CHLORO-2-METHYL-BENZOYL)-ISOPROPYL-AMINO]-5-PHENYL-THIOPHENE-2-CARBOXYLIC ACID] | < 5 µM | – | – |
| Cc1ccc(S(=O)(=O)N(c2cc(-c3ccccc3)sc2C(=O)O)C(C)C)c(C)c1 [Compound 240, 3-[(2,4-DIMETHYL-BENZENESULFONYL)-ISOPROPYL-AMINO]-5-PHENYL-THIOPHENE-2-CARBOXYLIC ACID] | 5 to 20 µM | – | – |
| Cc1cccc(CN(C(=O)C2CC2)c2cc(-c3ccccc3)sc2C(=O)O)c1 [Compound 466, 3-[CYCLOPROPANECARBONYL-(3- METHYL-BENZYL)-AMINO]-5-PHENYL- THIOPHENE-2-CARBOXYLIC ACID] | – | 5 to 20 µM | – |
| Cc1ccccc1S(=O)(=O)Nc1cc(-c2cccc([N+](=O)[O-])c2)sc1C(=O)O [Compound 63, 5-(3-NITRO-PHENYL)-3-(TOLUENE-2-SULFONYLAMINO)-THIOPHENE-2-CARBOXYLIC ACID] | < 5 µM | – | – |
| CCCC(=O)N(Cc1ccc(C)cc1)c1cc(-c2ccccc2)sc1C(=O)O [Compound 470, 3-[BUTYRYL-(4-METHYL-BENZYL)- AMINO]-5-PHENYL-THIOPHENE-2- CARBOXYLIC ACID] | – | 5 to 20 µM | – |
| CN(C(=O)C1CCCC1)c1cc(-c2ccccc2)sc1C(=O)O [Compound 497, 3-(CYCLOPENTANECARBONYL-METHYL- AMINO)-5-PHENYL-THIOPHENE-2- CARBOXYLIC ACID] | – | < 5 µM | – |
| CCC(=O)N(Cc1ccccc1C)c1cc(-c2ccccc2)sc1C(=O)O [Compound 427, 3-[(2-METHYL-BENZYL)-PROPIONYL- AMINO]-5-PHENYL-THIOPHENE-2- CARBOXYLIC ACID] | – | 5 to 20 µM | – |
| CC(C)=CCN(C(=O)c1ccc(C)cc1)c1cc(-c2ccccc2)sc1C(=O)O [Compound 300, 3-[(4-METHYL-BENZOYL)-(3-METHYL- BUT-ENYL)-AMINO]-5-PHENYL- THIOPHENE-2-CARBOXYLIC ACID] | 5 to 20 µM | – | – |
| CC(=O)Nc1cccc(-c2cc(NS(=O)(=O)c3ccccc3C)c(C(=O)O)s2)c1 [Compound 90, 5-(3-ACETYLAMINO-PHENYL)-3-(TOLUENE-2-SULFONYLAMINO)-THIOPHENE-2-CARBOXYLIC ACID] | 5 to 20 µM | – | – |
| CC1CCC(C(=O)N(c2cc(-c3ccccc3)sc2C(=O)O)C(C)C)CC1 (stereo not drawn) [Compound 317, 3-[ISOPROPYL-(4-METHYL- CYCLOHEXANECARBONYL)-AMINO]-5- PHENYL-THIOPHENE-2-CARBOXYLIC ACID] | – | – | IC50 (IC50): < 5 µM |
